Values belong to the compound of their own block, whether it stands above or below them.
How the values were obtained:
[1] = Guest molecule concentration after incubation in initial medium without polymer (Comparative Example 1); type: physicochemical; details: 37° C.
Outline: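 Dissolved guest content measured by HPLC of centrifuged supernatants (37° C., 13000 rpm, 5 min) sampled at 0.5 h, 3 h and 6 h. Incubation was polymer-free at 37° C.±0.5° C. in buffers of pH 2.0-7.4; nominal loading was set by maximum clinical dose.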

[2] = Binary supramolecular self-assembly systems of polymer and target: guest concentration over incubation time (Comparative Example 2); type: physicochemical; details: for Concentration of guest molecule in solution / Times that of the initial medium: 6 h
Description: Experiments were conducted according to the steps in Comparative Example 1, and quantitative analysis was carried out using the analytical method for each target to investigate the regulation ability […] stacking.

[3] = Binary (carrier), ternary and quaternary supramolecular self-assembly systems of polymer, carrier building block and target: guest concentration over incubation time (Examples 1-56); type: physicochemical
Outline: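 Targets were incubated at 37 °C in pH 2.0–7.4 buffers with 0.5% polymer alone or with carrier building blocks, after 0.5 h sonication for ternary systems, and shaken at 200 rpm. Samples at 0.5–6 h were centrifuged and diluted ≥10-fold, and dissolved target was quantified by HPLC; surfactant was added if needed.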

[4] = cited from earlier work
[5] = binary system with 0.5% polymer 101, incubation 0.5 h
[6] = binary system with 0.5% polymer 101, incubation 3 h
[7] = binary system with 0.5% polymer 101, incubation 6 h
[8] = binary system with 0.5% polymer 102, incubation 0.5 h
[9] = binary system with 0.5% polymer 102, incubation 3 h
[10] = binary system with 0.5% polymer 102, incubation 6 h
[11] = binary system with 0.5% polymer 103, incubation 0.5 h
[12] = binary system with 0.5% polymer 103, incubation 3 h
[13] = binary system with 0.5% polymer 103, incubation 6 h
[14] = binary system with 0.5% polymer 104, incubation 0.5 h
[15] = binary system with 0.5% polymer 104, incubation 3 h
[16] = binary system with 0.5% polymer 104, incubation 6 h
[17] = binary system with 0.5% polymer 106, incubation 0.5 h
[18] = binary system with 0.5% polymer 106, incubation 3 h
[19] = binary system with 0.5% polymer 106, incubation 6 h
[20] = binary system with 0.5% polymer 107, incubation 0.5 h
[21] = binary system with 0.5% polymer 107, incubation 3 h
[22] = binary system with 0.5% polymer 107, incubation 6 h
[23] = quaternary: 0.25% 205 (102H+104) + 0.25% 313, 6 h
[24] = quaternary: 0.25% 205 (102H+104) + 0.25% 318, 6 h
[25] = quaternary: 204 (103E5+102H) + 301, % not stated, 6 h
[26] = ternary: 0.25% 102H + 0.1% 313, 6 h
[27] = ternary: 0.25% 102H + 0.25% 313, 6 h
[28] = ternary: 0.25% 102H + 1.0% 313, 6 h
[29] = ternary: 102H (0.25% where stated) + 301, carrier % not stated, 6 h
[30] = quaternary: 202 (102H+107) + 0.5% 301, 6 h
[31] = quaternary: 202 (102H+107) + 0.5% 302, 6 h
[32] = quaternary: 204 (102H+103E5) + 0.5% 301, 6 h
[33] = quaternary: 204 (102H+103E5) + 0.5% 302, 6 h
[34] = ternary: 0.25% 102H + 0.5% 301, 6 h
[35] = ternary: 0.25% 102H + 0.5% 302, 6 h

Concentration of guest molecule measured after different incubated time ([1]; 0.5 h, pH 6.8 phosphate buffer): 140.4 µg/mL
Concentration of guest molecule measured after different incubated time ([1]; 3 h, pH 6.8 phosphate buffer): 34.8 µg/mL
Concentration of guest molecule measured after different incubated time ([1]; 6 h, pH 6.8 phosphate buffer): 31.6 µg/mL
Concentration of the target in the solution measured after different incubation time [2, 5]: 163.1 µg/mL
Concentration of the target in the solution measured after different incubation time [2, 6]: 89.0 µg/mL
Concentration of the target in the solution measured after different incubation time [2, 7]: 85.5 µg/mL
Concentration of the target in the solution measured after different incubation time [2, 8]: 205.7 µg/mL
Concentration of the target in the solution measured after different incubation time [2, 9]: 167.0 µg/mL
Concentration of the target in the solution measured after different incubation time [2, 10]: 154.0 µg/mL
Concentration of the target in the solution measured after different incubation time [2, 11]: 259.9 µg/mL
Concentration of the target in the solution measured after different incubation time [2, 12]: 126.5 µg/mL
Concentration of the target in the solution measured after different incubation time [2, 13]: 109.6 µg/mL
Concentration of the target in the solution measured after different incubation time [2, 14]: 105.4 µg/mL
Concentration of the target in the solution measured after different incubation time [2, 15]: 156.4 µg/mL
Concentration of the target in the solution measured after different incubation time [2, 16]: 144.8 µg/mL
Concentration of the target in the solution measured after different incubation time [2, 17]: 131.3 µg/mL
Concentration of the target in the solution measured after different incubation time [2, 18]: 60.3 µg/mL
Concentration of the target in the solution measured after different incubation time [2, 19]: 58.2 µg/mL
Concentration of the target in the solution measured after different incubation time [2, 20]: 103.5 µg/mL
Concentration of the target in the solution measured after different incubation time [2, 21]: 32.0 µg/mL
Concentration of the target in the solution measured after different incubation time [2, 22]: 27.0 µg/mL
Concentration of guest molecule in solution ([2]; binary: 0.5% 102H): 154.0 µg/mL
Times that of the initial medium ([2]; binary: 0.5% 102H): 4.9 times
Concentration of guest molecule in solution ([2]; binary: 0.5% 103E5): 105.4 µg/mL
Times that of the initial medium ([2]; binary: 0.5% 103E5): 3.3 times
Concentration of guest molecule in solution ([2]; binary: 0.5% 104): 144.8 µg/mL
Times that of the initial medium ([2]; binary: 0.5% 104): 4.6 times
Increase of the concentration of the guest molecule ([3]; 0.25% 102H, 1.0% 313 compared to the 0.25% 313 system, 6 h): 16.4%
Concentration of guest molecule in solution ([3]; binary: 0.25% 301, 6 h): 77.0 µg/mL
Concentration of guest molecule in solution ([3]; binary: 0.25% 302, 6 h): 34.2 µg/mL
Concentration of guest molecule in solution ([3]; binary: 0.25% 310, 6 h): 279.8 µg/mL
Concentration of guest molecule in solution ([3]; binary: 0.25% 313, 6 h): 70.0 µg/mL
Concentration of guest molecule in solution ([3]; binary: 0.25% 318, 6 h): 60.5 µg/mL
Concentration of guest molecule in solution [3, 23]: 250.7 µg/mL
Times that of the initial medium [3, 23]: 7.9 times
Concentration of guest molecule in solution [3, 24]: 257.8 µg/mL
Times that of the initial medium [3, 24]: 8.2 times
Concentration of guest molecule in solution [3, 25]: 250.4 µg/mL
Times that of the initial medium [3, 25]: 7.9 times
Concentration of guest molecule in solution [3, 26]: 191.5 µg/mL
Times that of the initial medium [3, 26]: 6.1 times
Concentration of guest molecule in solution ([3]; ternary: 0.25% 102H + 0.25% 302, 6 h): 195.5 µg/mL
Concentration of guest molecule in solution ([3]; ternary: 0.25% 102H + 0.25% 310, 6 h): 44.8 µg/mL
Concentration of guest molecule in solution [3, 27]: 361.6 µg/mL
Times that of the initial medium [3, 27]: 11.4 times
Concentration of guest molecule in solution ([3]; ternary: 0.25% 102H + 0.25% 318, 6 h): 181.8 µg/mL
Concentration of guest molecule in solution [3, 28]: 420.8 µg/mL
Times that of the initial medium [3, 28]: 13.3 times
Concentration of guest molecule in solution ([3]; ternary: 0.25% 103E5 + 0.25% 302, 6 h): 102.3 µg/mL
Concentration of guest molecule in solution ([3]; ternary: 0.25% 104 + 0.25% 302, 6 h): 138.3 µg/mL
Concentration of guest molecule in solution [3, 29]: 126.9 µg/mL
Times that of the initial medium [3, 29]: 4.0 times
SMILES: CC(=O)c1c(C)c2cnc(Nc3ccc(N4CCNCC4)cn3)nc2n(C2CCCC2)c1=O [Palbociclib]
LogD7.4 or Log P [4]: 1.31

Concentration of guest molecule measured after different incubated time ([1]; 0.5 h, 0.1% SDS in pH 6.8 phosphate buffer): 98.5 µg/mL
Concentration of guest molecule measured after different incubated time ([1]; 3 h, 0.1% SDS in pH 6.8 phosphate buffer): 4.1 µg/mL
Concentration of guest molecule measured after different incubated time ([1]; 6 h, 0.1% SDS in pH 6.8 phosphate buffer): 4.4 µg/mL
Concentration of the target in the solution measured after different incubation time [2, 5]: 741.5 µg/mL
Concentration of the target in the solution measured after different incubation time [2, 6]: 751.6 µg/mL
Concentration of the target in the solution measured after different incubation time [2, 7]: 759.3 µg/mL
Concentration of the target in the solution measured after different incubation time [2, 8]: 770.6 µg/mL
Concentration of the target in the solution measured after different incubation time [2, 9]: 151.8 µg/mL
Concentration of the target in the solution measured after different incubation time [2, 10]: 102.9 µg/mL
Concentration of the target in the solution measured after different incubation time [2, 11]: 602.5 µg/mL
Concentration of the target in the solution measured after different incubation time [2, 12]: 61.5 µg/mL
Concentration of the target in the solution measured after different incubation time [2, 13]: 38.5 µg/mL
Concentration of the target in the solution measured after different incubation time [2, 14]: 108.9 µg/mL
Concentration of the target in the solution measured after different incubation time [2, 15]: 4.3 µg/mL
Concentration of the target in the solution measured after different incubation time [2, 16]: 3.7 µg/mL
Concentration of the target in the solution measured after different incubation time [2, 17]: 765.3 µg/mL
Concentration of the target in the solution measured after different incubation time [2, 18]: 571.3 µg/mL
Concentration of the target in the solution measured after different incubation time [2, 19]: 310.3 µg/mL
Concentration of the target in the solution measured after different incubation time [2, 20]: 784.3 µg/mL
Concentration of the target in the solution measured after different incubation time [2, 21]: 432.2 µg/mL
Concentration of the target in the solution measured after different incubation time [2, 22]: 244.4 µg/mL
Concentration of guest molecule in solution ([2]; binary: 0.5% 102H): 102.9 µg/mL
Times that of the initial medium ([2]; binary: 0.5% 102H): 18.4 times
Average concentration of guest molecule in solution ([2]; binary: 0.5% 102H, within 4 to 6 hours): 110 µg/mL
Concentration of guest molecule in solution ([2]; binary: 0.5% 103E5): 33.4 µg/mL
Times that of the initial medium ([2]; binary: 0.5% 103E5): 6.0 times
Concentration of guest molecule in solution ([2]; binary: 0.5% 107): 171.6 µg/mL
Times that of the initial medium ([2]; binary: 0.5% 107): 30.6 times
Concentration of guest molecule in solution [3, 30]: 512.2 µg/mL
Times that of the initial medium [3, 30]: 91.3 times
Concentration of guest molecule in solution [3, 31]: 572.8 µg/mL
Times that of the initial medium [3, 31]: 102.1 times
Concentration of guest molecule in solution [3, 32]: 543.3 µg/mL
Times that of the initial medium [3, 32]: 96.8 times
Concentration of guest molecule in solution [3, 33]: 431.5 µg/mL
Times that of the initial medium [3, 33]: 76.9 times
Concentration of guest molecule in solution [3, 34]: 609.8 µg/mL
Times that of the initial medium [3, 34]: 108.7 times
Concentration of guest molecule in solution [3, 35]: 644.6 µg/mL
Times that of the initial medium [3, 35]: 115 times
Concentration of guest molecule in solution ([3]; ternary: 102H + 310, carrier % not stated, 6 h): 65.6 µg/mL
Concentration of guest molecule in solution ([3]; ternary: 102H + 310, 2 h): 903.1 µg/mL
Concentration of guest molecule in solution ([3]; ternary: 102H + 311, 4 h): 804.8 µg/mL
Concentration of guest molecule in solution ([3]; ternary: 102H + 311, 6 h): 246.9 µg/mL
Concentration of guest molecule in solution ([3]; ternary: 102H + 313, carrier % not given, 6 h): 634.8 µg/mL
Concentration of guest molecule in solution ([3]; ternary: 102H + 313, 4 h): 884.2 µg/mL
Concentration of guest molecule in solution ([3]; ternary: 102H + 318, carrier % not stated, 6 h): 115.4 µg/mL
Concentration of guest molecule in solution ([3]; ternary: 102H + 318, 2 h): 778.1 µg/mL
SMILES: CNC(=O)c1cc(Oc2ccc(NC(=O)Nc3ccc(Cl)c(C(F)(F)F)c3)cc2)ccn1 [Sorafenib]
LogD7.4 or Log P [4]: 4.34
